Drawing on ChEMBL document CHEMBL4828726, “Modification of 5-methylphenanthridium from benzothiazoles to indoles as potent FtsZ inhibitors: Broadening the antibacterial spectrum toward vancomycin-resistant enterococci” (Eur J Med Chem, 2021), this text covers MBC, MIC and Ratio for six compounds.

Type in all cases: functional
For test [1], the system named is Enterococcus faecium. The test is described as follows: Bactericidal activity against Vancomycin-susceptible Enterococcus faecium ATCC 19434 assessed as inhibition of bacterial growth measured after 20 hrs by two-fold microdilution assay.
For test [2], the system named is Enterococcus faecalis. Nature of the test: Bactericidal activity against Vancomycin-susceptible Enterococcus faecalis ATCC 29212 assessed as inhibition of bacterial growth measured after 20 hrs by two-fold microdilution assay. (Broth dilution looks for growth in wells or tubes with falling amounts of substance.)
The subject of test [3] is Staphylococcus aureus. The test is described as follows: Bactericidal activity against penicillin-resistant Staphylococcus aureus ATCC 31007 assessed as inhibition of bacterial growth measured after 20 hrs by two-fold microdilution assay.
For test [4], the system named is Streptococcus pyogenes. The test is described as follows: Antibacterial activity against erythromycin-susceptible Streptococcus pyogenes assessed as inhibition of bacterial growth measured after 20 hrs by two-fold microdilution assay.
Test [5] deals with Staphylococcus aureus. Nature of the test: Antibacterial activity against methicillin-resistant Staphylococcus aureus ATCC43300 assessed as inhibition of bacterial growth measured after 20 hrs by two-fold microdilution assay.
In test [6] the test system is Staphylococcus aureus. Nature of the test: Antibacterial activity against clinical isolate Staphylococcus aureus C1 assessed as inhibition of bacterial growth measured after 20 hrs by two-fold microdilution assay.
Test [7] deals with Enterococcus faecalis. The test is described as follows: Antibacterial activity against Vancomycin-susceptible Enterococcus faecalis ATCC 29212 assessed as inhibition of bacterial growth measured after 20 hrs by two-fold microdilution assay.
For test [8], the system named is Enterococcus faecium. Nature of the test: Antibacterial activity against Vancomycin-susceptible Enterococcus faecium ATCC 19434 assessed as inhibition of bacterial growth measured after 20 hrs by two-fold microdilution assay.
The subject of test [9] is Staphylococcus aureus. Nature of the test: Antibacterial activity against penicillin-resistant Staphylococcus aureus ATCC 31007 assessed as inhibition of bacterial growth measured after 20 hrs by two-fold microdilution assay.
Test [10] deals with Enterococcus faecalis. Nature of the test: Bactericidal activity against Vancomycin-resistant Enterococcus faecalis ATCC 51299 assessed as inhibition of bacterial growth measured after 20 hrs by two-fold microdilution assay.
Another test has as its system Pseudomonas aeruginosa. The test is described as follows: Antibacterial activity against penicillin-susceptible Pseudomonas aeruginosa ATCC 27853 assessed as inhibition of bacterial growth measured after 20 hrs by two-fold microdilution assay.
For test [11], the system named is Enterococcus faecium. Nature of the test: Bactericidal activity against Vancomycin-resistant Enterococcus faecium ATCC 51559 assessed as inhibition of bacterial growth measured after 20 hrs by two-fold microdilution assay.
Test [12] concerns Staphylococcus aureus. Nature of the test: Antibacterial activity against erythromycin-susceptible Staphylococcus aureus ATCC 25923 assessed as inhibition of bacterial growth measured after 20 hrs by two-fold microdilution assay.
The subject of test [13] is Staphylococcus aureus. Nature of the test: Bactericidal activity against erythromycin-susceptible Staphylococcus aureus ATCC 25923 assessed as inhibition of bacterial growth measured after 20 hrs by two-fold microdilution assay.
Test [14] relates to Bacillus pumilus. The test is described as follows: Antibacterial activity against penicillin-susceptible Bacillus pumilus CMCC63202 assessed as inhibition of bacterial growth measured after 20 hrs by two-fold microdilution assay.
For test [15], the system named is Enterococcus faecalis. The test is described as follows: Antibacterial activity against Vancomycin-resistant Enterococcus faecalis ATCC 51299 assessed as inhibition of bacterial growth measured after 20 hrs by two-fold microdilution assay.
Test [16] has as its system Bacillus pumilus. Nature of the test: Bactericidal activity against penicillin-susceptible Bacillus pumilus CMCC63202 assessed as inhibition of bacterial growth measured after 20 hrs by two-fold microdilution assay.
Test [17] concerns Staphylococcus aureus. Nature of the test: Ratio of MBC to MIC against methicilline-resistant Staphylococcus aureus ATCC43300.
Test [18] has as its system Staphylococcus aureus. The test is described as follows: Ratio of MBC to MIC against erythromycin-susceptible Staphylococcus aureus ATCC 25923.
The subject of test [19] is Staphylococcus epidermidis. Nature of the test: Antibacterial activity against penicillin-resistant Staphylococcus epidermidis assessed as inhibition of bacterial growth measured after 20 hrs by two-fold microdilution assay.
Test [20] deals with Bacillus pumilus. Nature of the test: Ratio of MBC to MIC against penicillin-susceptible Bacillus pumilus CMCC63202.
The test system of test [21] is Enterococcus faecium. Nature of the test: Antibacterial activity against Vancomycin-resistant Enterococcus faecium ATCC 51559 assessed as inhibition of bacterial growth measured after 20 hrs by two-fold microdilution assay.
Test [22] has as its system Bacillus subtilis. Nature of the test: Antibacterial activity against penicillin-susceptible Bacillus subtilis ATCC 9372 assessed as inhibition of bacterial growth measured after 20 hrs by two-fold microdilution assay.
Test [23] has as its system Bacillus subtilis. The test is described as follows: Bactericidal activity against penicillin-susceptible Bacillus subtilis ATCC 9372 assessed as inhibition of bacterial growth measured after 20 hrs by two-fold microdilution assay.
Test [24] relates to Streptococcus pyogenes. Nature of the test: Antibacterial activity against erythromycin-resistant Streptococcus pyogenes assessed as inhibition of bacterial growth measured after 20 hrs by two-fold microdilution assay.
For a further test, the system named is Escherichia coli. Nature of the test: Antibacterial activity against penicillin-susceptible Escherichia coli ATCC 25922 assessed as inhibition of bacterial growth measured after 20 hrs by two-fold microdilution assay.
Test [25] relates to Staphylococcus aureus. The test is described as follows: Bactericidal activity against methicillin-resistant Staphylococcus aureus ATCC43300 assessed as inhibition of bacterial growth measured after 20 hrs by two-fold microdilution assay.
The subject of test [26] is Bacillus subtilis. Nature of the test: Ratio of MBC to MIC against penicillin-susceptible Bacillus subtilis ATCC 9372.

As a reminder, the MBC is the smallest concentration meeting the test's criterion for killing. Usually MIC stands for the lowest concentration that inhibits growth of the organism. `C[n+]1cc2c3c(ccc2c2ccc4cc5c(cc4c21)OCO5)OCO3` [SANGUINARIUM]: the MBC in the test with Enterococcus faecium [1] is more than 64 µg/mL; in the test with Enterococcus faecalis [2], more than 64 µg/mL; in the test with Staphylococcus aureus [3], more than 64 µg/mL; with Enterococcus faecalis [10], more than 64 µg/mL; in the test with Enterococcus faecium [11], more than 64 µg/mL; in the test on Staphylococcus aureus [13], 128 µg/mL. The MBC with Bacillus pumilus [16] is 32 µg/mL; in the test on Bacillus subtilis [23], more than 128 µg/mL; in the test with Staphylococcus aureus [25] it was 128 µg/mL. Moreover, the minimal inhibitory concentration (MIC) amounted to 2 µg/mL in the test on Streptococcus pyogenes [4]; 8 µg/mL with Staphylococcus aureus [5]; 4 µg/mL with Staphylococcus aureus [6]; 16 µg/mL in the test with Enterococcus faecalis [7]; 64 µg/mL in the test on Enterococcus faecium [8]; 16 µg/mL with Staphylococcus aureus [9]. The MIC was more than 64 µg/mL with Pseudomonas aeruginosa; 4 µg/mL with Staphylococcus aureus [12]; 4 µg/mL in the test with Bacillus pumilus [14]; 32 µg/mL in the test with Enterococcus faecalis [15]; 8 µg/mL in [19]; 32 µg/mL in the test with Enterococcus faecium [21]. Further, the MIC was 2 µg/mL in the test on Bacillus subtilis [22], 2 µg/mL in the test on Streptococcus pyogenes [24] and 32 µg/mL with Escherichia coli. For the same compound, the Ratio in the test on Staphylococcus aureus [17] stood at 16; with Staphylococcus aureus [18], 32; with Bacillus pumilus [20], 8.

Consider `COc1ccc2cc3[n+](cc2c1OC)CCc1cc2c(cc1-3)OCO2` [BERBERINE], for which the MIC in the test with Streptococcus pyogenes [4] is 64 µg/mL; in the test with Staphylococcus aureus [5], more than 64 µg/mL; in the test on Staphylococcus aureus [6], more than 64 µg/mL; in the test on Enterococcus faecalis [7], more than 64 µg/mL; with Enterococcus faecium [8] it was more than 64 µg/mL; with Staphylococcus aureus [9], more than 64 µg/mL. Further, the MIC was more than 64 µg/mL in the test with Pseudomonas aeruginosa; 64 µg/mL in the test with Staphylococcus aureus [12]; more than 64 µg/mL with Bacillus pumilus [14]; more than 64 µg/mL with Enterococcus faecalis [15]; more than 64 µg/mL in test [19]; more than 64 µg/mL in the test with Enterococcus faecium [21]. Further, the MIC is more than 64 µg/mL in the test with Bacillus subtilis [22], 64 µg/mL in the test with Streptococcus pyogenes [24] and more than 64 µg/mL in the test with Escherichia coli.

For `CCCCn1ccc2ccc(-c3ccc4c(c3)c3cc(C)ccc3c[n+]4C)cc21.[Cl-]`, the MIC turned out to be 8 µg/mL in the test with Streptococcus pyogenes [4]; 8 µg/mL with Staphylococcus aureus [5]; 4 µg/mL in the test with Staphylococcus aureus [6]; 8 µg/mL in the test with Enterococcus faecalis [7]; 8 µg/mL in the test with Enterococcus faecium [8]; 8 µg/mL with Staphylococcus aureus [9]. Moreover, the MIC in the test on Pseudomonas aeruginosa was more than 64 µg/mL; with Staphylococcus aureus [12], 2 µg/mL; in the test with Bacillus pumilus [14], 8 µg/mL; in the test with Enterococcus faecalis [15] it was 16 µg/mL; in test [19], 16 µg/mL; in the test with Enterococcus faecium [21], 8 µg/mL. For the same compound, the values for the MIC in the test on Bacillus subtilis [22], in the test with Streptococcus pyogenes [24] and in the test on Escherichia coli were 4 µg/mL, 16 µg/mL and more than 64 µg/mL, respectively.

As for `Cc1ccc2c[n+](C)c3ccc(-c4ccc5ccn(Cc6ccccc6)c5c4)cc3c2c1.[Cl-]`, the MBC in the test with Staphylococcus aureus [3] was found to be 64 µg/mL; in the test with Staphylococcus aureus [13] it was 32 µg/mL; in the test with Bacillus pumilus [16], 64 µg/mL; in the test with Bacillus subtilis [23], 4 µg/mL; in the test on Staphylococcus aureus [25], 16 µg/mL. Moreover, the MIC with Streptococcus pyogenes [4] turned out to be 4 µg/mL; in the test on Staphylococcus aureus [5] it was 4 µg/mL; in the test on Staphylococcus aureus [6], 2 µg/mL; in the test on Enterococcus faecalis [7], 8 µg/mL; in the test with Enterococcus faecium [8], 4 µg/mL; in the test with Staphylococcus aureus [9] it was 4 µg/mL. For the same compound, the MIC in the test on Pseudomonas aeruginosa is more than 64 µg/mL; in the test with Staphylococcus aureus [12] it was 2 µg/mL; in the test on Bacillus pumilus [14] it was 4 µg/mL; in the test with Enterococcus faecalis [15] it was 16 µg/mL; in test [19], 8 µg/mL; in the test with Enterococcus faecium [21] it was 4 µg/mL. The MIC was 2 µg/mL in the test on Bacillus subtilis [22], 4 µg/mL in the test on Streptococcus pyogenes [24] and more than 64 µg/mL in the test on Escherichia coli. Also, the Ratio in the test with Bacillus subtilis [26] came to 2; with Staphylococcus aureus [17] it was 4; with Staphylococcus aureus [18], 16; in the test with Bacillus pumilus [20] it was 16.

In the case of `Cc1cccc2c[n+](C)c3ccc(-c4ccc5ccn(Cc6ccc(C(F)(F)F)cc6)c5c4)cc3c12.[Cl-]`, the minimum inhibitory concentration (MIC) in the test on Streptococcus pyogenes [4] was determined as 16 µg/mL; with Staphylococcus aureus [5], 8 µg/mL; in the test with Staphylococcus aureus [6], 8 µg/mL; in the test with Enterococcus faecalis [7], 16 µg/mL; in the test with Enterococcus faecium [8], 8 µg/mL; in the test with Staphylococcus aureus [9], 8 µg/mL. Moreover, the MIC with Pseudomonas aeruginosa is more than 64 µg/mL; in the test on Staphylococcus aureus [12] it was 2 µg/mL; in the test on Bacillus pumilus [14], 4 µg/mL; in the test on Enterococcus faecalis [15], 8 µg/mL; in [19], 4 µg/mL; in the test on Enterococcus faecium [21] it was 8 µg/mL. Besides, the MIC with Bacillus subtilis [22] is 2 µg/mL; with Streptococcus pyogenes [24], 16 µg/mL; with Escherichia coli it was more than 64 µg/mL.

As to `Cc1cccc2c[n+](C)c3ccc(-c4nc5ccccc5s4)cc3c12.[Cl-]`, the MIC in the test on Streptococcus pyogenes [4] came out at 4 µg/mL; in the test on Staphylococcus aureus [5] it was 4 µg/mL; in the test on Staphylococcus aureus [6], 4 µg/mL; with Enterococcus faecalis [7], 1 µg/mL; in the test on Enterococcus faecium [8], 8 µg/mL; with Staphylococcus aureus [9] it was 4 µg/mL. Also, the MIC in the test on Pseudomonas aeruginosa is more than 64 µg/mL; with Staphylococcus aureus [12], 2 µg/mL; in the test with Bacillus pumilus [14] it was 4 µg/mL; in the test on Enterococcus faecalis [15], 16 µg/mL; in test [19] it was 4 µg/mL; with Enterococcus faecium [21], 16 µg/mL. Also, the figures for the MIC in the test on Bacillus subtilis [22], in the test with Streptococcus pyogenes [24] and in the test on Escherichia coli were 4 µg/mL, 4 µg/mL and more than 64 µg/mL, respectively. In addition, the MBC with Staphylococcus aureus [13] and in the test on Bacillus subtilis [23] was more than 64 µg/mL in each case.
